Patent US20130053357A1, “SKIN IRRITATION SUPPRESSANT AND TRANSDERMAL PREPARATION” (HISAMITSU PHARMACEUTICAL CO., INC., priority 2010, published 2013)
Like-named read-outs stand apart in the source and are kept apart here.

Experiments:
[1] = system: human three-dimensional culture epidermal model (LabCyte EPI-MODEL); assay: Production of skin irritation mediators induced by PMA in human three-dimensional epidermal culture model (Experiment 1); format: cell-based; settings: for Effect on skin irritation mediator production by PMA (in words): summary of Table 1; for Relative Production Amount of Skin Irritation Mediator when Production Amount in PMA Only Group is Set to 100: IL-1α / Relative Production Amount of Skin Irritation Mediator when Production Amount in PMA Only Group is Set to 100: IL-6 / Relative Production Amount of Skin Irritation Mediator when Production Amount in PMA Only Group is Set to 100: IL-8 / Relative Production Amount of Skin Irritation Mediator when Production Amount in PMA Only Group is Set to 100: PGE2 / activity at 1 %: 48 hours; for activity at 1 %: Homo sapiens
From the text: Changes in production amounts of skin irritation mediators by test substances were examined when cutaneous irritants were caused to act on a human three-dimensional culture epidermal model.
(§1) A human three-dimensional epidermal culture model obtained by multilayer-culturing a human normal epidermal cell (LabCyte EPI-MODEL, manufactured by Japan Tissue Engineering Co., Ltd.) was used. LabCyte is a cultured skin cultured in a transwell. For the experiment, LabCyte was used with the transwell.
As test substances, there were used cholesterol (manufactured by Wako Pure Chemical Industries, Ltd.), β-sitosterol (manufactured by TAMA BIOCHEMICAL CO., LTD.), α-spinasterol (manufactured by ChromaDex, Inc.), ergosterol (manufactured by Wako Pure Chemical Industries, Ltd.), campesterol (manufactured by TAMA BIOCHEMICAL CO., LTD.), glycyrrhizin (manufactured by Wako Pure Chemical Industries, Ltd.), glycyrrhetinic acid (manufactured by Wako Pure Chemical Industries, Ltd.), ginsenoside (manufactured by Wako Pure Chemical Industries, Ltd.), squalene (manufactured by Wako Pure Chemical Industries, Ltd.), squalane (manufactured by Tokyo Chemical Industry Co., Ltd.) and lanosterol (manufactured by ChromaDex, Inc.), which are candidates of a skin irritation suppressant.
As skin irritants, Phorbol 12-Myristate 13-Acetate (PMA, manufactured by Wako Pure Chemical Industries, Ltd.) was used. In addition, as vehicle, olive oil (manufactured by Wako Pure Chemical Industries, Ltd.) was used.
Experiments were conducted by the following group composition. • PMA Only Group: A group with addition of only 0.00001 mol of PMA dispersed in a vehicle, as a test solution. • Test Substance Group: A group with addition of 0.00001 mol of PMA and the test substance which were dispersed in a vehicle, as a test solution.
(§2) The experiment was conducted as below. First, LabCyte was put into a 24-well assay plate. Then, 1 ml of assay medium (Japan Tissue Engineering Co., Ltd.) was added so that it was brought into contact with a bottom surface of the cultured skin in each well of the 24-well assay plate, and was pre-cultured in an incubator with 5% of carbon dioxide concentration at 37° C. for 1 hour.
Next, a cell survival rate was measured by the MTT method after causing the test solutions of each group to act. Specifically, 50 μL of the test solution of each group was added to the surface of the LabCyte after preculture, was cultured in the incubator with 5% of carbon dioxide concentration at 37° C. for 48 hours, then was transferred to the assay medium comprising 0.5 mg/ml of MTT reagent, and was cultured in the incubator with 5% of carbon oxide level at 37° C. for 3 hours. Then, LabCyte was immersed in 0.3 ml of an isopropanol solution, and the produced blue-purple formazan was extracted for 2 hours. After extraction, an absorbance at 570 nm was measured by a 96 microplate reader. The cell survival rate was calculated as below.
Cell survival rate (%)=(absorbance of Test Substance Group)/(absorbance of PMA Only Group)×100
Subsequently, a production amount of the skin irritation mediator at a test substance concentration with 80% or more of cell survival rate was measured. As skin irritation mediators, PGE2, IL-1α, IL-6, IL-8 were measured.
(§3) The test solutions of each group were added to the cells, the culture solutions incubated for 48 hours were collected, and a production amount of each skin irritation mediator was measured. The skin irritation mediator was measured by using a commercially available ELISA kit (manufactured by R&D Systems, Inc.). A relative production amount of the skin irritation mediator in each test substance was calculated as below, when the production amount of the skin irritation mediator in the PMA Only Group was set to 100.
Relative production amount=(production amount of the mediator in Test Substance Group)/(production amount of the mediator in PMA Only Group)×100

[2] = system: croton oil-induced mouse ear swelling; assay: Suppression of croton oil-induced mouse ear swelling reaction (Experiment 3); format: in vivo
From the text: <Suppression of Croton Oil-Induced Mouse Ear Swelling Reaction by the Test Substances>
Suppression of mouse ear swelling was examined through the use of croton oil (Wako Pure Chemical Industries, Ltd.) as a swelling inducer. A 7-week-old ddY female mouse (SPF) was subjected to an experiment. As test substances, cholesterol, glycyrrhizin, glycyrrhetinic acid, squalene, ergosterol, squalane and lanosterol were used. As a vehicle, acetone (Wako Pure Chemical Industries, Ltd.) was used.
Experiments were conducted by the following group composition. • Positive Control Group: A group which received only the vehicle as a primary test solution, and one hour after, received a 2% croton oil solution as a secondary test solution. • Test Substance Group: A group in which only the vehicle was administered as a primary test solution, and one hour after, a 2% croton oil solution including 1% by mass of test substance was administered as a secondary test solution.
An inhibition ratio of ear swelling was calculated as below. In this test, a […] inflammation model is used to examine immediate swelling reactions. In accordance with the group composition, 25 μL of the primary test solution was uniformly coated on back sides of both ears in an etherize mouse, and one hour after, 25 μL of the secondary test solution was uniformly coated in accordance with the group composition. Prior to coating of the secondary test solution, a thickness of auricle was measured by DIAL […] GAUGE (OZAKI MFG CO., LTD.). Furthermore, the secondary test solution was administered, and 6 hours after, the auricular thickness was measured in the same way as mentioned above, and an increased amount of the auricular thickness was set by deducting the thickness measured prior to administration of the secondary test solution. The inhibition ratio of ear swelling was calculated as below.
Inhibition ratio of ear swelling (%)=(increased amount of auricular thickness in Test Substance Group−increased amount of auricular thickness in Negative Control Group)/(increased amount of auricular thickness in Positive Control Group−increased amount of auricular thickness in Negative Control Group)×100

[3] = system: human three-dimensional culture epidermal model (LabCyte EPI-MODEL); assay: Suppression by cholesterol of skin irritation mediator production induced by drugs in a human epidermal cell (Experiment 2); format: cell-based; settings: Drug Plus Cholesterol Group: drug 1 × 10^−3 M plus 1% by mass of cholesterol
Experimental: as §1, §2, §3
Cholesterol was used as a test substance. The drugs shown in Table 2 were used as the cutaneous irritants.
Tests were conducted by the following group composition. • Drug Only Group: A group with addition of only the drug dispersed in a vehicle, as a test solution. Concentrations of the drugs are shown in Table 2. • Drug Plus Cholesterol Group: A group with addition of the drug and 1% by mass of cholesterol which were dispersed in a vehicle, as a test solution.
The experiment was conducted while other conditions were set in the same manner as in Experiment 1.

[4] = test substance 0.1 mass % with PMA in olive oil
[5] = test substance 1 mass % with PMA in olive oil

CC[C@H](/C=C/[C@@H](C)[C@H]1CC[C@H]2C3=CC[C@H]4C[C@@H](O)CC[C@]4(C)[C@H]3CC[C@]12C)C(C)C [α-spinasterol]
Effect on skin irritation mediator production by PMA (in words) [1]: exhibited effects of suppressing the skin irritation mediator production by PMA | Relative Production Amount of Skin Irritation Mediator when Production Amount in PMA Only Group is Set to 100: IL-1α [1, 4]: 38 | Relative Production Amount of Skin Irritation Mediator when Production Amount in PMA Only Group is Set to 100: IL-6 [1, 4]: 109 | Relative Production Amount of Skin Irritation Mediator when Production Amount in PMA Only Group is Set to 100: IL-8 [1, 4]: 72 | Relative Production Amount of Skin Irritation Mediator when Production Amount in PMA Only Group is Set to 100: PGE2 [1, 4]: 43

CC[C@H](CC[C@@H](C)[C@H]1CC[C@H]2[C@@H]3CC=C4C[C@@H](O)CC[C@]4(C)[C@H]3CC[C@]12C)C(C)C [β-sitosterol]
Effect on skin irritation mediator production by PMA (in words) [1]: exhibited effects of suppressing the skin irritation mediator production by PMA | Relative Production Amount of Skin Irritation Mediator when Production Amount in PMA Only Group is Set to 100: IL-1α [1, 5]: 101 | Relative Production Amount of Skin Irritation Mediator when Production Amount in PMA Only Group is Set to 100: IL-6 [1, 5]: 100 | Relative Production Amount of Skin Irritation Mediator when Production Amount in PMA Only Group is Set to 100: IL-8 [1, 5]: 34 | Relative Production Amount of Skin Irritation Mediator when Production Amount in PMA Only Group is Set to 100: PGE2 [1, 5]: 44

CC(C)=CCC[C@@H](C)[C@H]1CC[C@@]2(C)C3=C(CC[C@]12C)[C@@]1(C)CC[C@H](O)C(C)(C)[C@@H]1CC3 [Lanosterol, lanosterol]
activity at 1 % ([1]; test substance 1 mass % with PMA in olive oil, read-out: Relative Production Amount of Skin Irritation Mediator when Production Amount in PMA Only Group is Set to 100: IL-1α): 76% | activity at 1 % ([1]; test substance 1 mass % with PMA in olive oil, read-out: Relative Production Amount of Skin Irritation Mediator when Production Amount in PMA Only Group is Set to 100: IL-6): 90% | activity at 1 % ([1]; test substance 1 mass % with PMA in olive oil, read-out: Relative Production Amount of Skin Irritation Mediator when Production Amount in PMA Only Group is Set to 100: IL-8): 73% | activity at 1 % ([1]; test substance 1 mass % with PMA in olive oil, read-out: Relative Production Amount of Skin Irritation Mediator when Production Amount in PMA Only Group is Set to 100: PGE2): 47% | Effect on skin irritation mediator production by PMA (in words) [1]: exhibited effects of suppressing the skin irritation mediator production by PMA | Inhibition Ratio Of Ear Swelling ([2]; ddY female mouse, 1% by mass of test substance in 2% croton oil solution, 25 μL on ears, auricular thickness 6 hours after): 65.9% | Effect on croton oil-induced mouse ear swelling reaction (in words) ([2]; summary of Table 3): suppress croton oil-induced mouse ear swelling reaction

ginsenoside
Effect on skin irritation mediator production by PMA (in words) [1]: exhibited effects of suppressing the skin irritation mediator production by PMA | Relative Production Amount of Skin Irritation Mediator when Production Amount in PMA Only Group is Set to 100: IL-1α [1, 4]: 77 | Relative Production Amount of Skin Irritation Mediator when Production Amount in PMA Only Group is Set to 100: IL-6 [1, 4]: 70 | Relative Production Amount of Skin Irritation Mediator when Production Amount in PMA Only Group is Set to 100: IL-8 [1, 4]: 90 | Relative Production Amount of Skin Irritation Mediator when Production Amount in PMA Only Group is Set to 100: PGE2 [1, 4]: 121

Cc1nc2n(c(=O)c1CCN1CCC(c3noc4cc(F)ccc34)CC1)CCCC2 [Risperidone]
Relative Production Amount of Skin Irritation Mediator when Production Amount in Drug Only Group is Set to 100: IL-1α [3]: 14 | Relative Production Amount of Skin Irritation Mediator when Production Amount in Drug Only Group is Set to 100: IL-6 [3]: 77 | Relative Production Amount of Skin Irritation Mediator when Production Amount in Drug Only Group is Set to 100: IL-8 [3]: 38 | Relative Production Amount of Skin Irritation Mediator when Production Amount in Drug Only Group is Set to 100: PGE2 [3]: 80
